# Results published in patent US20070099822A1, “Regulation of tissue mineralization and phosphate metabolism by asarm peptides” (priority 2003, published 2007).
# Entries after “also recorded” stand apart in the source; their conditions may differ.
# Experiments:
# mice [1] = experiment: Example II: subcutaneous injection twice a day for three weeks, serum and urine; assay type: in vivo; settings: for serum phosphate: three weeks, vehicle 9.62; for % FEP vs control: two injections per day over three weeks, ASARM 1.34 and 4.00 mg/kg/day
# Protocol: Four groups of 7 mice were injected subcutaneously twice a day for three weeks. The first group received vehicle only as a control, the second group received etidronate at 60 mg/kg/day, the third group received ASARM peptide at 1.3 mg/kg/day (“low ASARM”), and the fourth group received ASARM peptide at 4 mg/kg/day (“high ASARM”). Calcein/tetracycline was administered to the animals 4 days and 2 days before the end of the protocol for visualization purposes.
# (§1) FIGS. 14a and 14b show the Fractional Excretion of Phosphate (FEP) in two different experiments. In the experiment shown in FIG. 14a, each of three groups of mice was treated with one injection per day, over two weeks, of either: (a) vehicle alone, (b) etidronate (10 mg/kg/day), or (c) ASARM peptide (2 mg/kg/day). In the experiment show in FIG. 14b, each of four groups of mice was treated with two injections per day, over three weeks, of either: (a) vehicle alone, (b) etidronate (60 mg/kg/day), (c) ASARM (1.34 mg/kg/day; “ASARM-low”), or (d) ASARM (4.00 mg/kg/day; “ASARM-high”).
# mice [2] = experiment: Example III: subcutaneous injection once a day for 12 days, mineralization and phosphate handling; assay type: in vivo; settings: ASARM peptide 2 mg/kg/day
# Protocol: as §1
# Three groups of 5 mice each received a subcutaneous injection once a day for 12 days. […] Calcein was given at 20 mg/kg/day on days 3, 5, 8, and 10 to allow visualization. The first group of mice were given an injection of vehicle only. The second group of mice were given etidronate at 10 mg/kg/day. The third group of mice were given ASARM peptide at 2 mg/kg/day.
# [3] = etidronate 10 mg/kg/day, listed as ASARM
substance,measurement,setting,value
ASARM peptide: ASARM peptide injected subcutaneously in Examples II and III; sequence and phosphorylation not stated; data resemble PO4-ASARM-peptide of Example VI (RDDSSESSDSGSSSESDGD),urinary phosphate excretion over 24 hours vs etidronate and control groups,mice [1]; ASARM 1.3 and 4 mg/kg/day,significantly higher
same,serum phosphate,"mice [1]; ASARM high, 4 mg/kg/day s.c. twice a day",10.01 mg/dL
same,serum phosphate,"mice [1]; ASARM low, 1.3 mg/kg/day s.c. twice a day",10.60 mg/dL
same,serum calcium vs vehicle,"mice [1]; etidronate 60 mg/kg/day, ASARM 1.3 and 4 mg/kg/day",lower serum calcium levels
same,serum alkaline phosphatase vs vehicle,"mice [1]; etidronate 60 mg/kg/day, ASARM 1.3 and 4 mg/kg/day (both groups)",levels similar to that of the vehicle; also recorded: levels similar to that of the control
same,% FEP vs control,mice [1],increase in FEP
same,% FEP vs control,mice [1]; listed as ASARM,much higher % FEP levels
same,serum alkaline phosphatase vs etidronate or vehicle groups,mice [2],lower levels
same,increase in urinary calcium levels compared to the control,mice [2]; etidronate 10 mg/kg/day,56.3%
same,inhibition in tooth mineralization,mice [2]; etidronate 10 mg/kg/day,35.3%
same,inhibition of mineralization in femur,mice [2]; etidronate 10 mg/kg/day,44.6%
same,inhibition of mineralization in tibia/femur,mice [2]; etidronate 10 mg/kg/day,24.4%
same,mineralization of calvariae and long bones,mice [2]; etidronate 10 mg/kg/day,mineralization was inhibited
same,serum calcium vs control,mice [2]; etidronate 10 mg/kg/day,did not show a significantly elevated level
same,tubular reabsorption of phosphate vs vehicle,mice [2]; etidronate 10 mg/kg/day,higher
same,urinary phosphate excreted in a 24-hour period vs control,mice [2]; etidronate 10 mg/kg/day,far less phosphate
same,urine creatinine,mice [2]; etidronate 10 mg/kg/day,significant elevation; also recorded: significantly elevated
same,urine phosphate,mice [2]; etidronate 10 mg/kg/day,induced hypophosphaturia
same,Phosphate Excretion Index (PEI),mice [2]; [3],much lower PEI
same,mineralization of calvariae and long bones,mice [2]; [3],greatly inhibited
same,renal phosphorous clearance vs vehicle,mice [2]; [3],significantly less phosphate clearance
same,serum phosphate,mice [2]; [3],induced hyperphosphatemia
same,urinary phosphate excreted in a 24-hour period vs control,mice [2]; [3],far less
same,urine phosphate,mice [2]; [3],hypophosphaturia
same,% FEP vs control,mice [2]; one injection per day over two weeks,significantly lower % FEP; also recorded: decrease in FEP
same,Fractional Excretion of Phosphate (FEP) vs vehicle,"mice [2]; s.c. once a day 12 days, etidronate 10 mg/kg/day",significantly lower; also recorded: decreased
same,inhibition of mineralization of calvariae,"mice [2]; s.c. once a day 12 days, etidronate 10 mg/kg/day, calcein",62.0%
